Reference: patent US20230372274A1, “COMPOSITIONS AND METHODS FOR PERIORBITAL ADMINISTRATION OF EP2 RECEPTOR AGONISTS” (JENIVISION INC., priority 2021, published 2023)

Tests used:
[1] = biological target: T1, human recombinant EP2 receptors (Homo sapiens, UniProt P43116); details: cited from earlier work
T1 construct: expressed in transfected cells; host or cells: HEK cells

EP1 receptors = biological target: T2, EP1 receptors (Homo sapiens, UniProt P34995); details: Woodward et al., 2019; cited from earlier work
T2 sequence (P34995 1-402): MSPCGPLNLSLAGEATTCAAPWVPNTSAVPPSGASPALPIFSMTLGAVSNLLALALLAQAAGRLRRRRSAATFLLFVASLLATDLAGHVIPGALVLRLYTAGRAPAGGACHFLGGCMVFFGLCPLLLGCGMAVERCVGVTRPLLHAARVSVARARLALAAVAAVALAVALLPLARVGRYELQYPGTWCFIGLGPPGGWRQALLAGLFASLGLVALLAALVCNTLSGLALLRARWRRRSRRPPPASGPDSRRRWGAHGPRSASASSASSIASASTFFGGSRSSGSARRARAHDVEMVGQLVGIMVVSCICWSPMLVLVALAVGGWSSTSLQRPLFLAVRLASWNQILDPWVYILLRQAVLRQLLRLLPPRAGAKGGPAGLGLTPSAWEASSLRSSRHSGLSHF

EP3 receptors = biological target: T3, EP3 receptors (Homo sapiens, UniProt P43115); details: Woodward et al., 2019; cited from earlier work
T3 sequence (P43115 1-390): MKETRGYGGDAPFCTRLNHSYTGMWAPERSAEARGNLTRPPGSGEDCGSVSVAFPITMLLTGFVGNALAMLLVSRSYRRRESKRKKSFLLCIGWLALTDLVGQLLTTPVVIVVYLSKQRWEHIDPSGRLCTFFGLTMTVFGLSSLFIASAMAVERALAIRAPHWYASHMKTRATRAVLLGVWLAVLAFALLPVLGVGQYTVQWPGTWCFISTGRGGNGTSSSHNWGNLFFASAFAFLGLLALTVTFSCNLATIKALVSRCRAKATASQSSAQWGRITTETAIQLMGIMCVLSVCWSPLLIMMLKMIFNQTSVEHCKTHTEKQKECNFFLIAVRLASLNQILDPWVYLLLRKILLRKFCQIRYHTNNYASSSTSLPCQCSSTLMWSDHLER

EP4 receptors = EP4 receptors (Homo sapiens, UniProt P35408); details: Woodward et al., 2019; cited from earlier work
DP receptors = biological target: T4, DP receptors (Homo sapiens, UniProt Q13258); details: Woodward et al., 2019; cited from earlier work
T4 sequence (Q13258 1-359): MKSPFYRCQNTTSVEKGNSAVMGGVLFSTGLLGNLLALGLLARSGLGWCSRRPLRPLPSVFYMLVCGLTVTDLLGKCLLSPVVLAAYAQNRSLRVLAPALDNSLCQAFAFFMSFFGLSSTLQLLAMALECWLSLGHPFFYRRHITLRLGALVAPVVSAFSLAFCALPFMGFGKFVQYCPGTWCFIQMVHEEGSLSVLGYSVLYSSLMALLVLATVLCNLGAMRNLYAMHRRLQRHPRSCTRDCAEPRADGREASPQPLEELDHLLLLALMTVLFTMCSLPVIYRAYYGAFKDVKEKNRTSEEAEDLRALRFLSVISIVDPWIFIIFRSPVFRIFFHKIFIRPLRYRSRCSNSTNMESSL

FP receptors = FP receptors (Homo sapiens, UniProt P43088); details: Woodward et al., 2019; cited from earlier work
IP receptors = IP receptors (Homo sapiens, UniProt P43119); details: Woodward et al., 2019; cited from earlier work
TP receptors = biological target: T5, TP receptors (Homo sapiens, UniProt P21731); details: Woodward et al., 2019; cited from earlier work
T5 sequence (P21731 1-343): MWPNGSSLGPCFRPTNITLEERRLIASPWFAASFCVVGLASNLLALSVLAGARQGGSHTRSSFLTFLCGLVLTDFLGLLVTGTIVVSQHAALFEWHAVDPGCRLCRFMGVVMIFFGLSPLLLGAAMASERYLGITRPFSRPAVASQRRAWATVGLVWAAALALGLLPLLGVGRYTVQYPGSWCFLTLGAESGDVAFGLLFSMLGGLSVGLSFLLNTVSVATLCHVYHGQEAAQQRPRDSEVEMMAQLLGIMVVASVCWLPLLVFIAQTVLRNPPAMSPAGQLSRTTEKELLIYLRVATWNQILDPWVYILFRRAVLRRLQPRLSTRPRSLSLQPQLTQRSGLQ

[2] = test system: ocular normotensive cynomolgus monkeys; experiment: Intraocular pressure after single periorbital dose (Example 1); assay type: in vivo, cynomolgus monkey; details: single periorbital dose of 10, 20 and 30 micrograms (similar extent), right eye (OD)
Text: FIG. 2 compares the effect of 9 micrograms bimatoprost (30 pi of 0.03% Lumigan® ophthalmic solution) topical ocular surface administration once daily per eye for 4 days with single dose periorbital skin administration of [(3′-fluoro-4-fluorobiphenyl-3-carbonyl) amino] phenoxyacetic acid isopropyl ester ointment at 10 micrograms, 20 micrograms or 30 micrograms [(3′-fluoro-4-fluorobiphenyl-3-carbonyl) amino] phenoxyacetic acid isopropyl ester on intraocular pressure (TOP) in ocular normotensive Cynomolgus monkeys (Mean±SEM, n=4/group).
(§1) Ocular normotensive cynomolgus monkeys were administered a single dose of JV-GL1 Ointment (20% medium-chain triglycerides and 80% petrolatum (v/v)) to the periorbital skin of the right eye (OD) at JV-GL1 doses of 10 micrograms, 20 micrograms, and 30 micrograms and TOP was measured; Lumigan® eye drops were used as a comparator. […] Compared with baseline, IOP was decreased in the eyes (OD) of animals treated with 10 micrograms, 20 micrograms, and 30 micrograms JVGL-1 to a similar extent (approximately 60%) whereas a much lower decrease occurred for Lumigan® (approximately 30%).

[3] = test system: ocular normotensive cynomolgus monkeys; experiment: Periorbital skin and pupil observations after single periorbital dose of 10-30 micrograms (Example 1); assay type: in vivo, cynomolgus monkey
Description: as §1
The incidence rate of pupil constriction in the three test article groups was 100% after 2-3 hours post-dosing.

[4] = test system: ocular normotensive cynomolgus monkeys; experiment: Intraocular pressure after once daily periorbital 0.2 μg/eye ointment (Example 2); assay type: in vivo, cynomolgus monkey
Description: Animals were unilaterally treated via periorbital skin administration of [(3′-fluoro-4-fluorobiphenyl-3-carbonyl) amino] phenoxyacetic acid isopropyl ester ointment once daily on Days 15-21. The right eye of the control group (Group 2) received ointment vehicle once daily on Days 8-14 and no treatment on Days 15-21. OD=right eye.
Ocular normotensive cynomolgus monkeys (Group 1, n=3) were unilaterally treated via periorbital skin administration of JV-GL1 ointment once daily in an amount of 0.2 μg in the right eye on Days 15-21 of a study, the results of which are shown in FIG. 3. JV-GL1 was administered as an ointment (20% medium-chain triglycerides and 80% petrolatum (v/v)). The animals were untreated on days 8-14 and IOP monitored daily. Group 2 (n=3) was administered vehicle ointment alone on days 8-14, followed by no treatment on days 15-21 of the study.

[5] = test system: ocular normotensive cynomolgus monkeys; experiment: Local observations after low periorbital doses of ointment (0.2 to 5 micrograms/eye); assay type: in vivo, cynomolgus monkey
Description: Separately, ocular normotensive cynomolgus monkeys were administered single doses of the ointment at 0.6 micrograms, 2.0 micrograms or 5.0 micrograms per eye.

monkey = experiment: Monkey study of periorbital skin administration versus eye drops; assay type: in vivo; details: essentially equal doses
human subjects [6] = experiment: IOP in human subjects after once daily periorbital ointment (Example 6); assay type: in vivo
Description: (§2) Human subjects were treated with JV-GL1 ointment (20% medium-chain triglycerides and 80% petrolatum (v/v)) via periorbital skin administration to both eyes once daily. The human subjects were monitored daily for 9 days, with TOP measurements taken at 0 hours, 0.5 hours, 2 hours, and 8 hours from administration of the dose on Days 0, 1, and 9. IOP measurements were taken 0 hours from administration of the dose on Days 4 and 7.

human subjects [7] = experiment: Tolerability in human subjects during periorbital dosing (Example 6); assay type: in vivo; details: Groups 1-4, during the dosing period
Description: as §2

[8] = 10, 20, 30 micrograms single dose

T1 sequence (P43116 whole entry): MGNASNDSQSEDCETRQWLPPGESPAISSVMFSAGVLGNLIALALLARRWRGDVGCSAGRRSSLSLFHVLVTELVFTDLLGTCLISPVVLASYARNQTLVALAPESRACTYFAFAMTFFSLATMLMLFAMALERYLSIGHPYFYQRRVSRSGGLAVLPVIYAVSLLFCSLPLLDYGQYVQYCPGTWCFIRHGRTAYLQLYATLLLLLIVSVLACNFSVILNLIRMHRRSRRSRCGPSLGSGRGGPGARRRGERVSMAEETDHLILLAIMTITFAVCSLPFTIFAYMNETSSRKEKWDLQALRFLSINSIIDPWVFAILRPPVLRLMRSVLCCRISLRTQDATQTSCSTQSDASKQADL
Chain of EP4 receptors (P35408 whole entry): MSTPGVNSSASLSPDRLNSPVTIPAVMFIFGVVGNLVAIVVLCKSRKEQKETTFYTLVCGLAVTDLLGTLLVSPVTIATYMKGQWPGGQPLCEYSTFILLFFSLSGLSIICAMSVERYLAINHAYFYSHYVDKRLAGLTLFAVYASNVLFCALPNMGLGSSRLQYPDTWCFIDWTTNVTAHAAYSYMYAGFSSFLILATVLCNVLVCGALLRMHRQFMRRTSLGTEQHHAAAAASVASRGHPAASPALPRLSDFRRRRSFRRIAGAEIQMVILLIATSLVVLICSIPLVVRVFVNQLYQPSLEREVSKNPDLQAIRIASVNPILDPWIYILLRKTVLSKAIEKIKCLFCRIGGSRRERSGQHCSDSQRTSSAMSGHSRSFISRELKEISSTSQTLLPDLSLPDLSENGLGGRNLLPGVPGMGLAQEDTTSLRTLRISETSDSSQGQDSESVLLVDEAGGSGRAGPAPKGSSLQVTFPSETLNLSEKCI
Chain of FP receptors (P43088 whole entry): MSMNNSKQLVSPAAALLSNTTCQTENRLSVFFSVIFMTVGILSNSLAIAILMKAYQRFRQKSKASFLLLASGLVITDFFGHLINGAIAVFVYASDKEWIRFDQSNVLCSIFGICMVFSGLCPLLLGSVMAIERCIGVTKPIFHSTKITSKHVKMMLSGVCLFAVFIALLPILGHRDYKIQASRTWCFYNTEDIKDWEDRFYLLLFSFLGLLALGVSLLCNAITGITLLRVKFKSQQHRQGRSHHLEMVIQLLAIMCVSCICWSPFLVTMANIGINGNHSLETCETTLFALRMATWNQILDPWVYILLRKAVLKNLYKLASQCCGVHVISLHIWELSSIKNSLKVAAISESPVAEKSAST
Chain of IP receptors (P43119 whole entry): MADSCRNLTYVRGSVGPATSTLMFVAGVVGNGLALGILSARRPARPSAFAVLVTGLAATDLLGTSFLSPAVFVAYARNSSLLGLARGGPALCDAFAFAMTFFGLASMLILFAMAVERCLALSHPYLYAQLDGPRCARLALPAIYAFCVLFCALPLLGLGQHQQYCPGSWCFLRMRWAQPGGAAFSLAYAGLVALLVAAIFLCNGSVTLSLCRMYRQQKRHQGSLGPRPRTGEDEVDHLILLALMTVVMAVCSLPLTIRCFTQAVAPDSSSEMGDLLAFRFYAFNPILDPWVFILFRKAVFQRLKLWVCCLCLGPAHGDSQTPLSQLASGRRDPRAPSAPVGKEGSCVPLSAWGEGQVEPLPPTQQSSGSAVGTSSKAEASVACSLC

O=C(O)COc1cccc(NC(=O)c2cc(-c3cccc(F)c3)ccc2F)c1 [JV-GL1 free acid, 3-[(3′-fluoro-4-fluorobiphenyl-3-carbonyl)amino] phenoxyacetic acid]
maximal elevation of cAMP levels ([1]; HEK cells over-expressing human recombinant EP2 receptors, versus PGE2): comparable to that of the endogenous agonist PGE2 | EP2 receptor agonism ([1]; Woodward et al., 2019): potent and full EP2 receptor agonist | affinity for EP1 receptors (EP1 receptors): negligible | affinity for EP3 receptors (EP3 receptors): negligible | affinity for EP4 receptors (EP4 receptors): negligible | affinity for DP receptors (DP receptors): negligible | affinity for FP receptors (FP receptors): negligible | affinity for IP receptors (IP receptors): negligible | affinity for TP receptors (TP receptors): negligible

CC(C)OC(=O)COc1cccc(NC(=O)c2cc(-c3cccc(F)c3)ccc2F)c1 [JV-GL1, 3-[(3′-fluoro-4-fluorobiphenyl-3-carbonyl)amino] phenoxyacetic acid isopropyl ester]
IOP decrease compared with baseline [2]: approximately 60% | incidence rate of periorbital skin swelling, dose relation [3, 8]: showed a certain dose dependent relationship | recovery of periorbital skin redness [3, 8]: completely recovered by Day 2 | resolution of periorbital skin swelling [3, 8]: disappeared by Day 5 | incidence rate of periorbital skin redness ([3]; all three groups (10, 20, 30 micrograms), 2-3 hours post-dosing): 100% | recovery of pupil constriction ([3]; except a single animal in the high-dose group): recovered by Day 15 | local findings at 10 to 30 micrograms/eye ([3]; in ointment, periorbital, 10 to 30 micrograms/eye): modest pupil constriction, erythema of the ocular surface and periorbital skin, and swelling of the periorbital skin | incidence rate of pupil constriction ([3]; three groups (10, 20, 30 micrograms), after 2-3 hours post-dosing): 100% | onset of marked decrease in IOP ([4]; 0.2 μg/eye (OD) once daily): as early as one day following initiation of treatment | IOP by the end of the study ([4]; 0.2 μg/eye (OD) once daily Days 15-21, from a starting point of ˜25 mmHg): ~10 mmHg | efficacy and local tolerability at lower doses ([5]; 0.2 to 5 micrograms/eye, periorbital): retained without obvious periorbital skin swelling and hyperemia of the periorbital skin and ocular surface | pupil constriction during the dosing period ([5]; eyes treated with either eye drops or ointment): persistent pupil constriction was observed | resolution of skin redness and swelling ([5]; single doses of ointment at 0.6, 2.0 or 5.0 micrograms per eye): disappeared a few hours to overnight after dosing | efficacy of periorbital skin administration versus eye drops (monkey): as effective as eye drops | average change in TOP (human subjects [6]; Group 1, 0.30 μg/eye/day over 9 days, 0 hours after dose): −6% | average change in TOP (human subjects [6]; Group 1, 0.30 μg/eye/day over 9 days, 0.5 hours after dose): −3% | average change in TOP (human subjects [6]; Group 1, 0.30 μg/eye/day over 9 days, 2 hours after dose): 0% | average change in TOP (human subjects [6]; Group 1, 0.30 μg/eye/day over 9 days, 8 hours after dose): −4% | average change in TOP (human subjects [6]; Group 2, 0.59 μg/eye/day over 9 days, 0 hours after dose): −14% | average change in TOP (human subjects [6]; Group 2, 0.59 μg/eye/day over 9 days, 0.5 hours after dose): −10% | average change in TOP (human subjects [6]; Group 2, 0.59 μg/eye/day over 9 days, 2 hours after dose): −16% | average change in TOP (human subjects [6]; Group 2, 0.59 μg/eye/day over 9 days, 8 hours after dose): −12% | average change in TOP (human subjects [6]; Group 3, 0.99 μg/eye/day over 9 days, 0 hours after dose): −11% | average change in TOP (human subjects [6]; Group 3, 0.99 μg/eye/day over 9 days, 0.5 hours after dose): −16% | average change in TOP (human subjects [6]; Group 3, 0.99 μg/eye/day over 9 days, 2 hours after dose): −16% | average change in TOP (human subjects [6]; Group 3, 0.99 μg/eye/day over 9 days, 8 hours after dose): −15% | average change in TOP (human subjects [6]; Group 4, 1.92 μg/eye/day over 9 days, 0 hours after dose): −19% | average change in TOP (human subjects [6]; Group 4, 1.92 μg/eye/day over 9 days, 0.5 hours after dose): −22% | average change in TOP (human subjects [6]; Group 4, 1.92 μg/eye/day over 9 days, 2 hours after dose): −20% | average change in TOP (human subjects [6]; Group 4, 1.92 μg/eye/day over 9 days, 8 hours after dose): −14% | average change in TOP (human subjects [6]; Group 5, 3.99 μg/eye/day over 9 days, 0 hours after dose): −13% | average change in TOP (human subjects [6]; Group 5, 3.99 μg/eye/day over 9 days, 0.5 hours after dose): −13% | average change in TOP (human subjects [6]; Group 5, 3.99 μg/eye/day over 9 days, 2 hours after dose): −18% | average change in TOP (human subjects [6]; Group 5, 3.99 μg/eye/day over 9 days, 8 hours after dose): −18% | dose dependence of TOP reduction (human subjects [6]; Groups 1, 2, 3 and 4 (0.30 to 1.92 μg/eye/day)): dose-dependent trend in TOP reduction | irritation or discomfort associated with AE of mild periorbital erythema (human subjects [7]): did not report any irritation or discomfort
